The target of the experiment is T1, sRANKL recombinant (RANKL) (Homo sapiens, UniProt O14788).
T1 construct: gene TNFSF11; human is named only for the docking model (3URF), whose residue numbers (K181, Y235, Q237, Y241) fit human RANKL
T1 sequence (O14788 140-317 limits assumed): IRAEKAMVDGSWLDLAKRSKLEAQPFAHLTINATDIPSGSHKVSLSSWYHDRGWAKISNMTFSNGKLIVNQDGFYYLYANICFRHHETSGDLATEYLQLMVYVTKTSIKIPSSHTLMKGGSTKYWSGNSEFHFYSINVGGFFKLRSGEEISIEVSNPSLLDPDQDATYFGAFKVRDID
In words: isothermal titration calorimetry (ITC), single binding mode fit. Particulars: read-out: KA × 10^3 (L/mol) (converted). The source says:
isothermal titration calorimetry (ITC), single binding mode fit on sRANKL recombinant (RANKL)
For the molecule `COc1ccc(-c2coc3cc(O)cc(O)c3c2=O)cc1` [Biochanin A], the Kd is 833 µM. Turning to `COc1ccc(-c2coc3cc(O)ccc3c2=O)cc1` [Formononetin], the Kd is 318 µM. Consider `O=c1c(-c2ccc(O)cc2)coc2cc(O)ccc12` [Daidzein], for which the Kd is 62.7 µM. Regarding `O=c1c(-c2ccc(O)cc2)coc2cc(O)cc(O)c12` [Genistein], the Kd was 317 µM. Regarding `O=c1oc2cc(O)ccc2c2oc3cc(O)ccc3c12` [Coumestrol], the Kd is 1430 µM.

The values above are taken from PMC6982798, “Evaluation of Isoflavones as Bone Resorption Inhibitors upon Interactions with Receptor Activator of Nuclear Factor-κB Ligand (RANKL)” (Molecules, 2020).
